Results: patent publication US20210122780A1, “COMPOSITIONS FOR THE PREVENTION AND TREATMENT OF PARKINSON'S DISEASE” (Metselex, Inc., priority 2018, published 2021)
Entries after “also recorded” stand apart in the source; their conditions may differ. Where two headings read alike, the source gives them in different places. Blank lines part the entries; values can stand above or below the molecule they belong to.

How the values were obtained:
SH-SY5Y cells [1] = assay: MTT cell viability, SNP-induced cytotoxicity; conditions: for impact on UDCA-mediated protection against SNP-induced cytotoxicity: inhibitor 1 h, UDCA 200 μM 1 h, SNP 1 mM 24 h
Method: (§3) Human dopaminergic neuronal cell line, SH-SY5Y, was cultured in DMEM/F12 medium supplemented with 10% FBS (v/v), penicillin (100 U/m)-streptomycin (100 μg/ml) in 5% CO2 at 37° C. […] Usually, the culture medium was changed to DMEM/F12 medium with 0.5% FBS before any treatment to reduce the serum effect. In order to prevent the direct interaction between the treated chemicals, the culture medium was changed to fresh low-serum medium at the ent of pretreatment. UDCA was dissolved in ethanol as a 100× stock solution and diluted to the desired final concentrations. To estimate cell viability, 3-(4,5-dimetnylthiazol-2-yl)-2,5-diphenyltetrazolium bromide (MTT) reduction assay was performed. After cells were treated ad culture medium was removed, MTT solution (50 μg, 1 mg/ml in phosphate buffered saline, PBS) was added to each well in 96-well plate and incubated for 4 h at 37° C. The medium was carefully removed, 100 μl DMSO added to each well, and the plate agitated on an orbital shaker for 15 min to dissolve the formazan. The absorbance was measured at 540 nm using a microplate reader (SepctraMax M2, Molecular Devices).

[2] = Aqueous solubility of prodrug salts; conditions: water
[3] = Stability in tris glycine buffer before AP addition (31P NMR); assay type: physicochemical; conditions: 0.100 M tris glycine buffer, 1.0 mM ZnCl2, 1.0 mM MgCl2, 1 h
Method: (§1) Compound 19d (10.0 mg, 0.016 mmol) or compound 3 (8.7 mg, 0.016 mmol) were dissolved in 0.6 mL of a 0.100 M tris glycine buffer solution containing 1.0 mM ZnCl2 and 1.0 mM MgCl2. […] 50 μL of the previously prepared AP stock solution was further diluted by addition to 0.950 mL of a 0.100 M tris glycine buffer containing 1.0 mM ZnCl2 and 1.0 mM MgCl2. 10.0 μL of this diluted AP solution was added to the prodrug solution by syringe. A series of 42 inverse-gated decoupled ^31P NMR's were taken (24 scans each, approximately one minute acquisition time). Conversion (%) was determined from the relative integration of the starting material and product peaks, NMR time stamps were used to determine time. Each experiment was repeated three times.

[4] = assay type: physicochemical; conditions: after one day at rt
Method: Chemical stability in pH 7.4 tris-buffered saline. 4.0 mg of prodrug 19d was dissolved in 0.9 mL H2O. To this solution was added 0.1 mL of tris-buffered saline (BM-300 from Boston BioProducts), containing tris (250 mM), KCl (27 mM), and NaCl (1.37 M). A sealed capillary tube containing phenylphosphonic acid dissolved in D2O was added as a standard. Chemical stability results were obtained by measuring the disappearance of starting material relative to the internal standard by ^31P NMR. The experiment was repeated three times. The standard deviation was ±3%.

[5] = assay type: physicochemical; conditions: for percent starting material remaining: after one week at rt in D2O solution; for stability on cold storage: stored in a freezer / cold
Method: Measurement of chemical stability of phosphorylated compounds. 4.0 mg of prodrug (19b, 19c, or 19d) were dissolved in 1.0 mL D2O. A sealed capillary tube containing phenylphosphonic acid dissolved in D2O was added as a standard. At time=0, a ^1H NMR spectrum was obtained and the proton signal at […]5.51 was integrated (It=0) relative to the aromatic signals from phenylphosphonic acid. After 7 days at rt, a new NMR spectrum was taken and the proton signal at δ 5.51 was integrated again (It=7). The percent starting material remaining was It=7/It=0×100. Each experiment was repeated three times. Chemical stability results obtained either by measuring the disappearance of starting material relative to the internal standard by ^31P NMR or by using inverse-gated decoupled phosphorus NMR and integrating starting material and product were very similar to the numbers obtained using ^1H NMR. For 19e, 4.0 mg 19b was dissolved in D2O and an additional equivalent of Tris added (the stoichiometry was confirmed by ^1H NMR) and the experiment conducted as above.

[6] = system: Alkaline phosphatase from bovine intestinal mucosa; assay: Alkaline phosphatase activation of prodrugs (31P NMR); assay type: biochemical; conditions: in vitro, FIG. 5
Method: Alkaline phosphatase activation of prodrugs 3 and 19d. Alkaline phosphatase from bovine intestinal mucosa (Sigma-Aldrich, P5521-2KU) was dissolved in 2.0 mL of a 0.100 M sodium glycine buffer containing 1.0 mM ZnCl2 and 1.0 mM MgCl2. This stock solution was stored at 4° C. between uses.
as §1

Primary rat hepatocytes = assay: Microarray gene expression profiling (Affymetrix Rat Expression Array 230A); assay type: cell-based; conditions: 100 μM UDCA, 24 h
Method: We determined the global profile of genes regulated by UDCA by using Affymetrix GeneChip® Rat Expression Array 230A, consisting of approximately 16,000 transcripts and variants. cRNA prepared from vehicle-treated cells was used for comparative analysis. The relative levels of gene expression after 24 h treatment of hepatocytes with 100 μM UDCA were compared by plotting the average difference between cells, and determining the fold change in gene expression. […] We also assessed the specificity and sensitivity of the microarray analysis. Hierarchical clustering was performed using specific gene subsets.

SH-SY5Y cells [7] = assay: Total ROS production (H2DCFDA); assay type: cell-based, human; conditions: 1 mM SNP
Method: (§2) After washing with Hank's balanced salt solution (HBSS), cells were incubated with 20 μM H2DCFDA or 50 μM DHR at 37° C. for 30 min, and then rinsed with HBSS. The fluorescence intensity was measured using an automatic fluorescence microplate reader (SpectraMax M2, Molecular Devices) at an excitation wavelength of 485 nm and an emission of 535 nm. The values were expressed as a percentage of fluorescence intensity to the untreated control group. The production of NO was determined by measuring nitrite, a stable oxidation product of NO in the culture medium. […] After a 10-min reaction, the absorbance at 550 nm was measured in a microplate reader (VersaMax, Molecular Devices). Sodium nitrite (NaNO2) was used as a standard to calculate nitrite concentrate and the values were expressed in micromoles.

SH-SY5Y cells [8] = assay: NO production (Griess reagent, nitrite); assay type: cell-based, human; conditions: SNP 24 h
Method: as §2

SH-SY5Y cells [9] = assay: Mitochondrial membrane potential (JC-1); assay type: cell-based, human
Method: Anaspec Inc.). JC-1 preferentially accumulates in mitochondria as red aggregates in normal conditions but it exists as green monomers in the cytosol when MMP collapsed during apoptosis. The ratio of red/green fluorescence correlates with MMP. […] Next, 5 μg/ml JC-1 was added and incubated at 37° C. for 15 min in dark. After wash three times with PBS, MMP was measured at 535/590 nm (Ex/Em) for red fluorescence and 485/535 (Ex/Em) for green fluorescence using a fluorescence multimode microplate reader (Infinite 200; Tecan). Results were calculated as the ratio of red-to-green fluorescence and the values were expressed as the percentage over control.

SH-SY5Y cells [10] = assay: Nuclear staining (Hoechst 33342/PI) for apoptosis and necrosis; assay type: cell-based, human; conditions: pretreatment prior to SNP 1 mM 24 h
Method: For the fluorescent detection of apoptotic and necrotic cells, nuclear staining with Hoechst dye 33342 and propidium iodide (PI) was performed. SH-SY5Y cells were exposed to SNP (1 mM) for 24 h with or without pretreatment with UDCA or YS. After fixation with 1% paraformaldehyde (PBS) for 30 min at room temperature, cells were washed with PBS and then stained with Hoechst 33342 (10 μM) for 10 min. Cells were washed with PBS and further stained with PI (10 μM) for 10 min. Stained cells were washed with PBS and observed under a fluorescent microscopy. The apoptotic cells were determined as bright condensed and fragmented nuclei. PI positive cells stained with pink to red color were counted as necrotic cells.

Bcl-2, Bax, cytochrome c = assay: Immunoblot analysis of Bcl-2, Bax, cytochrome c; assay type: cell-based, human
Method: Whole cell proteins were extracted using RIPA buffer (PBS, 1% NP-40, 0.5% Na deoxycholate, 0.1% SDS, 0.1 mg/ml PMSF, 30 mg/ml aprotinin, 1 mM Na3VO4). Cells were washed twice with PBS, lysed with RIPA buffer for 30 min on ice, and then centrifuged at 14,000×g for 10 min at 4° C. The supernatants were used as the total cell lysates. In some experiments, mitochondrial fraction was prepared from SH-Sy5Y cells using mitochondrial/cytosolic fraction kit (Biovision, Inc., Mountain View) according to the manufacturer's protocol. Protein concentration was determined by BCA protein assay kit (BioRad, Hercules, Calif.) using bovine serum albumin as a standard. […] The membrane was flocked in fresh blocking buffer (5% nonfat dry milk in Tris-buffered saline, pH 7.4, and containing 0.1% Tween 20) for 2 h at room temperature and rinsed in TBST buffer (0.1% Tween 20 in Tris-buffered saline, pH 7.4). The membrane was incubated at 4° C. with the following primary antibodies at dilutions of 1/1000: Bax, cytochrome c, Cox-4 or 1/4000: Bcl-2, actin. After three times washing with TBST buffer, membranes were incubated with horse radish peroxidase (HRP)-conjugated secondary antibodies (1:2000 dilutions) for 2 h at room temperature. Subsequently, the membrane was washed in TBST and the immunoreactive bands were detected by ECL chemiluminescence kit (GE Healthcare, USA). Protein bands were quantified by densitometric analysis.

mitochondrial membrane = assay: Bax-induced alterations of mitochondrial membrane (FIG. 1, 2)
SH-SY5Y cells [11] = system: SH-SY5Y cells
Method: as §3

Compound: O=c1cc(N2CCOCC2)oc2c(-c3ccccc3)cccc12 [LY294002]
impact on UDCA-mediated protection against SNP-induced cytotoxicity (SH-SY5Y cells [1]): reversed

Compound: CC(CCC(=O)OCOP(=O)(O)O)C1CCC2C3C(O)CC4CC(O)CCC4(C)C3CCC12C (stereo not shown) [Compound 19d, ursodeoxycholic acid phosphonooxymethoxy ester]
aqueous solubility, rapidly dissolving at all concentrations tested [2]: > 20 mg/mL | decomposition by 31P NMR in buffer [3]: Neither compound showed decomposition | percent remaining in pH 7.4 tris buffer [4]: 81% | percent starting material remaining [5]: 88% | chemical stability in solution ([5]; solution, ambient temperature): decomposed at a much slower rate | stability on cold storage ([5]; listed as mono-Tris salt of 19): stable for extended periods when stored cold | rate of alkaline phosphatase catalyzed release of UDCA [6]: more rapidly released

Compound: CC(CCC(=O)OCOP(=O)(O)O)C1CCC2C3C(O)CC4CC(O)CCC4(C)C3CCC12C (stereo not shown) [Compound 19c, ursodeoxycholic acid phosphonooxymethoxy ester]
percent starting material remaining [5]: 34%

Compound: C[C@H](CCC(=O)[O-])[C@H]1CC[C@H]2[C@@H]3[C@@H](O)C[C@@H]4C[C@H](OP(=O)([O-])O)CC[C@]4(C)[C@H]3CC[C@]12C.[Na+].[Na+] [Compound 3, 3-(Phosphonatooxy)-ursodeoxycholic acid sodium salt]
decomposition by 31P NMR in buffer [3]: Neither compound showed decomposition

Compound: CC(CCC(=O)OCOP(=O)(O)O)C1CCC2C3C(O)CC4CC(O)CCC4(C)C3CCC12C (stereo not shown) [Compound 19b, ursodeoxycholic acid phosphonooxymethoxy ester]
aqueous solubility, rapidly dissolving at all concentrations tested [2]: ≥ 20 mg/mL | percent starting material remaining [5]: 36% | stability on cold storage [5]: stable for extended periods of time when stored in a freezer

Compound: C[C@H](CCC(=O)[O-])[C@H]1CC[C@H]2[C@@H]3[C@@H](OCOP(=O)(O)O)C[C@@H]4C[C@H](O)CC[C@]4(C)[C@H]3CC[C@]12C.C[C@H](CCC(=O)[O-])[C@H]1CC[C@H]2[C@@H]3[C@@H](OCOP(=O)(O)O)C[C@@H]4C[C@H](O)CC[C@]4(C)[C@H]3CC[C@]12C.[Na+].[Na+] [Compound 13b, 7-(Phosphonooxymethoxy)-ursodeoxycholic acid sodium salt]
aqueous solubility, rapidly dissolving at all concentrations tested [2]: ≥ 10 mg/mL | stability in D2O solution overnight ([5]; D2O, overnight): a significant portion of the material decomposed

MMP, substance alone (SH-SY5Y cells [9]; no SNP, FIG. 4B): did not show any alterations in MMP
Compound: C[C@H](CCC(=O)O)[C@H]1CC[C@H]2[C@@H]3[C@@H](O)C[C@@H]4C[C@H](O)CC[C@]4(C)[C@H]3CC[C@]12C [UDCA, ursodeoxycholic acid]
altered genes fulfilling the filtering criteria (Primary rat hepatocytes): 96 genes | genes down-regulated (Primary rat hepatocytes): 68 genes | genes up-regulated (Primary rat hepatocytes): 28 genes | genes with alterations in expression, greater than 1.5-fold change (Primary rat hepatocytes): Approximately 441 genes | share of genes with alterations in expression (Primary rat hepatocytes): ~2.76% | ROS generation, % of SNP-treated group (SH-SY5Y cells [7]; 50 μM pretreatment): 79.68% | ROS generation, % of SNP-treated group (SH-SY5Y cells [7]; 100 μM pretreatment): 72.59% | ROS generation, % of SNP-treated group (SH-SY5Y cells [7]; 200 μM pretreatment): 58.09% | NO production compared with the group treated with SNP alone (SH-SY5Y cells [8]; 50 μM pretreatment): 91.44% | NO production compared with the group treated with SNP alone (SH-SY5Y cells [8]; 100 μM pretreatment): 82.88% | NO production compared with the group treated with SNP alone (SH-SY5Y cells [8]; 200 μM pretreatment): 77.26% | activity at 50 µM (SH-SY5Y cells [9]; Homo sapiens, SH-SY5Y, 50 μM pretreatment, 1 mM SNP 12 h, read-out: MMP, % of control group): 71% | activity at 100 µM (SH-SY5Y cells [9]; Homo sapiens, SH-SY5Y, 100 μM pretreatment, 1 mM SNP 12 h, read-out: MMP, % of control group): 88% | activity at 200 µM (SH-SY5Y cells [9]; Homo sapiens, SH-SY5Y, 200 μM pretreatment, 1 mM SNP 12 h, read-out: MMP, % of control group): 87% | cell viability, substance alone (SH-SY5Y cells [1]; 24 h at doses of 50-200 μM, no SNP): no obvious change in the viability | SNP-induced loss of cell viability / cytotoxicity (SH-SY5Y cells [1]; pretreatment 1 h, then 1 mM SNP 24 h): prevented; also recorded: significantly attenuated | apoptotic rate (SH-SY5Y cells [10]): 8.45±2.01% | ratio of Bcl-2/Bax (Bcl-2, Bax, cytochrome c; UDCA per se): 2.52±0.16 fold of control | ratio of Bcl-2/Bax (Bcl-2, Bax, cytochrome c; pretreatment with UDCA prior to SNP treatment): 2.21±0.09 fold of control | cytochrome c release from the mitochondria into the cytosol (Bcl-2, Bax, cytochrome c; pretreatment with UDCA, SNP 1 mM): 1.41±0.06 fold of control

Compound: C[C@H](CCC(=O)NCCS(=O)(=O)O)[C@H]1CC[C@H]2[C@@H]3[C@@H](O)C[C@@H]4C[C@H](O)CC[C@]4(C)[C@H]3CC[C@]12C [TUDCA, tauroursodeoxycholic acid]
Bax-induced alterations in mitochondrial membrane polarity (mitochondrial membrane; FIG. 1): prevents | Bax-induced alterations in mitochondrial membrane protein order (mitochondrial membrane; FIG. 2): prevents

Compound: COc1ccc2c(c1)c(C1=C(c3c[nH]c4ccccc34)C(=O)NC1=O)cn2CCCN(C)C [Go6983]
impact on UDCA-mediated protection against SNP-induced cytotoxicity (SH-SY5Y cells [1]): did not have significant impact | cell viability, inhibitor alone (SH-SY5Y cells [11]): had no effects on cell viability
